The values that follow come from patent US20040198833A1, “Acetylenic sulfonamide derivatives” (priority 2000, published 2004).

Broadly, the melting point is the temperature of the solid-liquid transition.

SMILES strings stand for the structures.

The compound `CC(C)S(=O)(=O)NCC(C)(F)c1ccc(C#CCCCCO)cc1` (stereo not shown) [Example 11, {2-fluoro-2-[4-(6-hydroxyhex-1-ynyl)phenyl]propyl}[(methylethyl)sulfonyl]amine] yielded a melting point of 92 to 93 °C.
